Data on one cell line can be found in the supplement of paper PMC10307832.

Common to all, as to test: relative viability (nuclei count vs DMSO), 5 days (fraction); higher = more cells survive
Compound in assay [1]: COc1cc([C@@H]2c3cc4c(cc3[C@@H](O[C@@H]3O[C@@H]5CO[C@@H](C)O[C@H]5[C@H](O)[C@H]3O)[C@H]3COC(=O)[C@H]23)OCO4)cc(OC)c1O [Etoposide] + COc1cccc2cc(-c3nc([C@H]4CC[C@H](C(=O)O)CC4)n4ncnc(N)c34)[nH]c12 [OSI-027] (partner 0.5 µM)
In short, it runs like this:
(§1)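 Nuclei were stained with Hoechst during a one-step fixation (final 0.05% Triton X-100, 1% formaldehyde, 1 ug/ml Hoechst) carried out 5 days after dosing, then counted on 4× images. The cells, lung cancer lines in 1536-well plates, had been dosed by pin tool the day after seeding with one drug alone or a fixed anchor-drug dose plus five library-drug doses (not always all listed) in √10 steps. Relative viability is the nuclei count in treated wells divided by that in vehicle wells, and each value is the median of duplicate plates.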

Compound in assay [2]: CC1=C(N=C(N=C1N)[C@H](CC(=O)N)NC[C@@H](C(=O)N)N)C(=O)N[C@@H]([C@H](C2=CN=CN2)OC3C(C(C(C(O3)CO)O)O)OC4C(C(C(C(O4)CO)O)OC(=O)N)O)C(=O)N[C@H](C)[C@H]([C@H](C)C(=O)N[C@@H]([C@@H](C)O)C(=O)NCCC5=NC(=CS5)C6=NC(=CS6)C(=O)NCCC[S+](C)C)O [Bleomycin] + O=C(CCCCCCC(=O)Nc1ccccc1)NO [Vorinostat] (partner 1 µM)
The following applies: main component drawn. Put shortly: as §1

Compound in assay [3]: CC1=C(N=C(N=C1N)[C@H](CC(=O)N)NC[C@@H](C(=O)N)N)C(=O)N[C@@H]([C@H](C2=CN=CN2)OC3C(C(C(C(O3)CO)O)O)OC4C(C(C(C(O4)CO)O)OC(=O)N)O)C(=O)N[C@H](C)[C@H]([C@H](C)C(=O)N[C@@H]([C@@H](C)O)C(=O)NCCC5=NC(=CS5)C6=NC(=CS6)C(=O)NCCC[S+](C)C)O [Bleomycin] + CC(C)C[C@H](NC(=O)[C@H](Cc1ccccc1)NC(=O)c1cnccn1)B(O)O [Bortezomib] (partner 0.002 µM)
The settings on record: main component drawn. In short, it runs like this: as §1

Compound in assay [4]: COc1cc([C@@H]2c3cc4c(cc3[C@@H](O[C@@H]3O[C@@H]5CO[C@@H](C)O[C@H]5[C@H](O)[C@H]3O)[C@H]3COC(=O)[C@H]23)OCO4)cc(OC)c1O [Etoposide] + Nc1ncn([C@H]2C[C@H](O)[C@@H](CO)O2)c(=O)n1 [Decitabine] (partner 2 µM)
In short, it runs like this:
as §1

Regarding UMC-11, the relative viability in assay [1] (first compound 0.01 µM) came to 0.443; in assay [1] (first compound 0.03162 µM), 0.544; in assay [1] (first compound 0.1 µM) it was 0.299; in assay [1] (first compound 0.3162 µM), 0.431; in assay [1] (first compound 1 µM) it was 0.3; in assay [2] (first compound 0.01 µM), 0.364. In addition, the relative viability in assay [2] (first compound 0.03162 µM) stood at 0.346; in assay [2] (first compound 0.1 µM), 0.311; in assay [2] (first compound 0.3162 µM), 0.278; in assay [2] (first compound 1 µM), 0.232; in assay [3] (first compound 0.01 µM), 0.626; in assay [3] (first compound 0.03162 µM), 0.587. The relative viability in assay [3] (first compound 0.1 µM) was 0.576; in assay [3] (first compound 0.3162 µM), 0.477; in assay [3] (first compound 1 µM), 0.304; in assay [4] (first compound 0.01 µM), 0.462; in assay [4] (first compound 0.03162 µM), 0.621; in assay [4] (first compound 0.1 µM), 0.355. For the same cell line, the values for the relative viability in assay [4] (first compound 0.3162 µM) and in assay [4] (first compound 1 µM) were 0.356 and 0.319, respectively.
